{
  "source": "patent EP0582261A1",
  "about": "“Cephalosporin compounds and processes for the preparation thereof” (LUCKY LTD., priority 1992, dated 1994)",
  "experiment_in_all_cases": "MIC, two-fold dilution method on Müller-Hinton agar",
  "type_in_all_cases": "cell-based",
  "conditions_in_all_cases": "incubated at 37°C for 20 hours",
  "key": {"[1]": {"system": "Proteus vulgaris ATCC 6059", "description": "(§1) The same procedures as described in Example 163 were repeated using 7-amino-1,8-dimethyl[1,3]imidazo[1,2-c] pyrimidine-5-thione prepared in Preparation Example 36 in place of 7-amino-1-methyl[1,3]imidazo[1,2-c]pyrimidine-5-thione to yield 190mg and 180mg of the title compound(a) and (b), respectively, as white solids.\n(§2) These MIC values were taken by employing a two-fold dilution method: that is, two-fold serial dilutions of each of the test compounds were made and dispersed in a Müller-Hinton agar medium; 2µl of the standard test strain which had the 10⁷ CFU(Colony Forming Unit) per ml was inoculated on the medium; and these were incubated at 37°C for 20 hours."}, "[2]": {"system": "Morganella morganii ATCC 8076h", "description": "as §1, §2"}, "[3]": {"system": "Bacillus megaterium ATCC 9885", "description": "as §1, §2"}, "[4]": {"system": "Providencia rettgeri ATCC 9250", "description": "as §1, §2"}, "[5]": {"system": "Pseudomonas aeruginosa ATCC 10145", "description": "as §1, §2"}, "[6]": {"system": "Salmonella typhimurium ATCC 14028", "description": "as §1, §2"}, "[7]": {"system": "Acinetobacter calcoaceticus ATCC 15473", "description": "as §1, §2"}, "[8]": {"system": "Micrococcus luteus ATCC 9341", "description": "as §1, §2"}, "[9]": {"system": "Staphylococcus epidermidis ATCC 12228", "description": "as §1, §2"}, "[10]": {"system": "Pseudomonas aeruginosa ATCC 27853", "description": "as §1, §2"}, "[11]": {"system": "Enterobacter aerogenes ATCC 29751", "description": "as §1, §2"}, "[12]": {"system": "Escherichia coli ATCC 10536", "description": "as §1, §2"}, "[13]": {"system": "Shigella sonnei ATCC 11060", "description": "as §1, §2"}, "[14]": {"system": "Staphylococcus aureus ATCC 10537", "description": "as §1, §2"}, "[15]": {"system": "Escherichia coli ATCC 25922", "description": "as §1, §2"}, "[16]": {"system": "Pseudomonas aeruginosa ATCC 25619", "description": "as §1, §2"}, "[17]": {"system": "Serratia marcescens ATCC 27117", "description": "as §1, §2"}, "[18]": {"system": "Streptococcus faecalis ATCC 29212", "description": "as §1, §2"}, "[19]": {"system": "Bacillus cereus ATCC 11778", "description": "as §1, §2"}, "[20]": {"system": "Klebsiella pneumoniae ATCC 10031", "description": "as §1, §2"}, "[21]": {"system": "Enterobacter cloacae ATCC 27508", "description": "as §1, §2"}, "[22]": {"system": "Shigella flexneri ATCC 11836", "description": "as §1, §2"}, "[23]": {"system": "Citrobacter freundii ATCC 8090", "description": "as §1, §2"}, "[24]": {"system": "Staphylococcus aureus ATCC 6538p", "description": "as §1, §2"}, "[25]": {"system": "Proteus mirabilis ATCC 25933", "description": "as §1, §2"}},
  "data": [
    {"substance": "7-[(Z)-2-(5-amino-1,2,4-thiadiazol-3-yl)-2-(ethoxyimino)acetamido]-3-(7-amino-1-methyl[1,2,4] triazolo[1,5-c]pyrimidinium-5-yl)thiomethyl-3-cephem-4-carboxylate [Exp. 72]", "values": [
      {"measurement": "MIC values against the standard strains", "setting": "[1]", "result": 0.5, "unit": "µg/mL"},
      {"measurement": "MIC values against the standard strains", "setting": "[2]", "result": "≤0.008", "unit": "µg/mL"},
      {"measurement": "MIC values against the standard strains", "setting": "[3]", "result": 0.063, "unit": "µg/mL"},
      {"measurement": "MIC values against the standard strains", "setting": "[4]", "result": "≤0.008", "unit": "µg/mL"},
      {"measurement": "MIC values against the standard strains", "setting": "[5]", "result": 4, "unit": "µg/mL"},
      {"measurement": "MIC values against the standard strains", "setting": "[6]", "result": 0.25, "unit": "µg/mL"},
      {"measurement": "MIC values against the standard strains", "setting": "[7]", "result": 1, "unit": "µg/mL"},
      {"measurement": "MIC values against the standard strains", "setting": "[8]", "result": 0.016, "unit": "µg/mL"},
      {"measurement": "MIC values against the standard strains", "setting": "[9]", "result": 0.25, "unit": "µg/mL"},
      {"measurement": "MIC values against the standard strains", "setting": "[10]", "result": 4, "unit": "µg/mL"},
      {"measurement": "MIC values against the standard strains", "setting": "[11]", "result": 0.25, "unit": "µg/mL"},
      {"measurement": "MIC values against the standard strains", "setting": "[12]", "result": 0.063, "unit": "µg/mL"},
      {"measurement": "MIC values against the standard strains", "setting": "[13]", "result": 0.063, "unit": "µg/mL"},
      {"measurement": "MIC values against the standard strains", "setting": "[14]", "result": 0.13, "unit": "µg/mL"},
      {"measurement": "MIC values against the standard strains", "setting": "[15]", "result": 0.063, "unit": "µg/mL"},
      {"measurement": "MIC values against the standard strains", "setting": "[16]", "result": 1, "unit": "µg/mL"},
      {"measurement": "MIC values against the standard strains", "setting": "[17]", "result": 0.25, "unit": "µg/mL"},
      {"measurement": "MIC values against the standard strains", "setting": "[18]", "result": 8, "unit": "µg/mL"},
      {"measurement": "MIC values against the standard strains", "setting": "[19]", "result": 16, "unit": "µg/mL"},
      {"measurement": "MIC values against the standard strains", "setting": "[20]", "result": 0.016, "unit": "µg/mL"},
      {"measurement": "MIC values against the standard strains", "setting": "[21]", "result": "≤0.008", "unit": "µg/mL"},
      {"measurement": "MIC values against the standard strains", "setting": "[22]", "result": 0.031, "unit": "µg/mL"},
      {"measurement": "MIC values against the standard strains", "setting": "[23]", "result": 0.063, "unit": "µg/mL"},
      {"measurement": "MIC values against the standard strains", "setting": "[24]", "result": 0.25, "unit": "µg/mL"},
      {"measurement": "MIC values against the standard strains", "setting": "[25]", "result": 0.25, "unit": "µg/mL"}
    ]}
  ]
}
